Results as given in publication PMC9154793, “Design, synthesis, and biological evaluation of triazole-pyrimidine-methylbenzonitrile derivatives as dual A2A/A2B adenosine receptor antagonists” (Journal of Enzyme Inhibition and Medicinal Chemistry, 2022).

Legend:
human A2A AR = human A2A AR (Homo sapiens, UniProt P29274); assay: cAMP functional assay in CHO-K1/ADORA2A/Gα15 cells (NECA-stimulated, HTRF); assay type: cell-based; conditions: relative to ZM241385 at 1 μM, mean ± SEM; for inhibition at 0.01 µM / inhibition at 0.1 µM / inhibition at 1 µM: CHO-K1; for inhibition at 0.01 µM: read-out: hA2A AR (%) inhibition of cAMP, 10 nM; for inhibition at 0.1 µM: read-out: hA2A AR (%) inhibition of cAMP, 100 nM; for inhibition at 1 µM: read-out: hA2A AR (%) inhibition of cAMP, 1000 nM;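 for all read-outs here: inhibition of NECA-driven intracellular cAMP build-up in the A2A-expressing cells, quantified with cAMP-d2 plus Eu3+-labelled anti-cAMP detection reagent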
Procedure: (§16) In the cAMP assay, CHO-K1/ADORA2A/Gα15 cells expressing human A2A AR and CHO-K1/ADORA2b/Gα15 cells expressing human A2B AR were activated by 5′-(N-ethylcarboxamido)adenosine (NECA) and triggered the accumulation of intracellular cAMP concentration.
(§17) CHO-K1/ADORA2A/Gα15 cells expressing human A2A AR and CHO-K1/ADORA2b/Gα15 cells expressing human A2B AR were both constructed by Genscript Biotech Corporation. […] The test stock solutions were diluted with different gradients for use. The procedure was exemplified by the cAMP functional assay on the A2A receptor: 10,000 cells/well of CHO-K1/ADORA2A/Gα15 were seeded in a 384-well plate in 20 μl of assay buffer. […] Then, 10 μl of detection reagent (cAMP-d2 and anti-cAMP-Eu3+) was added into each well of the plate and incubated at room temperature for 1 h.

human A2B AR = target: T1, human A2B AR (Homo sapiens, UniProt P29275); assay: cAMP functional assay in CHO-K1/ADORA2b/Gα15 cells (NECA-stimulated, HTRF); assay type: cell-based; conditions: compound at 100 nM, relative to ZM241385 at 1 μM, mean ± SEM; for inhibition at 0.1 µM: CHO-K1, read-out: hA2B AR (%) inhibition of cAMP, 100 nM
T1 sequence (P29275 1-332): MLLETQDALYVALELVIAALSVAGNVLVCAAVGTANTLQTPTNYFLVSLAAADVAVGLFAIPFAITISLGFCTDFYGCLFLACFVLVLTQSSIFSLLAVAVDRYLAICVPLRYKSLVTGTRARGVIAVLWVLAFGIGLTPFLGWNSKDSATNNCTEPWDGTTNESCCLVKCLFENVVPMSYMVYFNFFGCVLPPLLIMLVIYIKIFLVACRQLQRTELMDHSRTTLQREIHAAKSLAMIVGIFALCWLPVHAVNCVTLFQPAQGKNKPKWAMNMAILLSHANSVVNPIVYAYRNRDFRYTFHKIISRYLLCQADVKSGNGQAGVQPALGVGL
Procedure: as §16, §17

[1] = Metabolic stability in rat liver microsomes; assay type: in vitro ADME, Sprague–Dawley rats
Procedure: (§1) The metabolic stability is an important focus for further compound optimisation. Compounds 7f, 7i, and AB928 were chosen to evaluate the stability in rat liver microsomes and human liver microsomes. For the microsomal metabolic experiment, 7-ethoxycoumarin (7-EC) was used as a control. As shown in Table 4 (see Supporting information for raw data), the CLint(liver) of 7-EC in rats and humans was 10.0 and 9.0 ml/min/g liver, respectively, indicating the experimental test system was reliable.
(§2) Metabolic stabilities of compounds 7f, 7i, and AB928 in liver microsomes were studied with pooled human (male) liver microsomes solution (20 mg/ml) and male Sprague–Dawley rats pooled liver microsomes solution (20 mg/ml) purchased from Research Institute for Liver Diseases (Shanghai) Co. Ltd. Both liver microsomes solutions (140 μl) were diluted by 3948 μl of water and 280 μl of phosphate buffered saline. The assay procedure: 640 μl of diluted liver microsomes solution was added to a solution of compound working solution (16 μl, 25 μM in DMSO) and the mixed solution was incubated at 37 °C for 5 min. Then 160 μl of NADPH generating system was added and take out 100 μl from the mixed solution was added 200 μl of acetonitrile solution to stop the reaction at the set incubation time (0 min, 10 min, 20 min, 30 min, 40 min, 50 min, and 60 min). All stopped reaction solutions were vortex mixed (3 min) and centrifuged (10,000 rpm, 4 °C for 10 min). Then 50 μl of the supernatant was analysed by UPLC-MS/MS system (details of the analytical method see Supporting information). […]
(§3) 8. Metabolic stability in human and rat liver microsomes
(§4) Metabolic stabilities of compounds 7f, 7i and AB928 in liver microsomes were studied with pooled human (male) liver microsomes solution (20 mg/mL) and male Sprague - Dawley rats pooled liver microsomes solution (20 mg/mL) purchased from Research Institute for Liver Diseases (Shanghai) Co. Ltd. Both liver microsomes solutions (140 μL) were diluted by 3948 μL of water and 280 μL of phosphate buffered saline. The assay procedure: 640 μL of diluted liver microsomes solution was added to a solution of compound working solution (16 μL, 25 μM in DMSO) and the mixed solution was […]
(§5) (1 picture or pasted object on this page, not shown here) […]
(§6) incubated at 37 ℃ for 5 min. Then 160 μL of NADPH generating system was added and take out 100 μL from the mixed solution was added 200 μL of acetonitrile solution to stop the reaction at the set incubation time (0 min, 10 min, 20 min, 30 min, 40 min, 50 min, and 60 min). All stopped reaction solutions were vortex mixed (3 min) and centrifuged (10000 rpm, 4 ℃ for 10 min). Then 50 μL of the supernatant was analyzed […]
(§7) 8.2 Chromatography and mass spectrometry conditions
(§8) UPLC was performed using an […] UPLC system (Waters, Milford, MA, […]
(§9) USA). Separation was achieved on a Waters BEH C18 column(100 mm × 2.1 mm， 1.7 μm) at 40 ℃. The injection volume of the sample solution was 5 μL. The mobile phase consisted of water (0.1% formic acid and ammonium acetate) and acetonitrile solution (20:80, v/v) at a flow rate of 0.4 mL/min within a running time of 6 min. Mass spectrometric analysis was performed on a Waters Xevo TQ-S triple quadrupole instrument using electrospray ionization in positive mode. Quantification was performed using multiple reaction monitoring (MRM) mode to monitor precursor-product ion transitions (Table S1).
(§10) Table S1. Conditions of MRM Detection. […]
(§11) Table S2. Raw data of metabolic stability in human and rat liver microsomes. […]
(§12) (min) Hum Rat Hum Rat Hum Rat Hum Rat
(§13) 9. Analytical method of pharmacokinetics assay
(§14) Animal experiments were performed according to the institutional ethical guidelines on animal care and approved by the Institute Animal Care and Use Committee at Binzhou […]
(§15) Female Bal b/c mice (sourced from Jinan Pengyue Experimental Animal Breeding […]

[2] = Metabolic stability in human liver microsomes; assay type: in vitro ADME
Procedure: as §1, §2, §3, §4, §5, §6, §7, §8, §9, §10, §11, §12, §13, §14, §15

human A2A AR, sequence (P29274 whole entry): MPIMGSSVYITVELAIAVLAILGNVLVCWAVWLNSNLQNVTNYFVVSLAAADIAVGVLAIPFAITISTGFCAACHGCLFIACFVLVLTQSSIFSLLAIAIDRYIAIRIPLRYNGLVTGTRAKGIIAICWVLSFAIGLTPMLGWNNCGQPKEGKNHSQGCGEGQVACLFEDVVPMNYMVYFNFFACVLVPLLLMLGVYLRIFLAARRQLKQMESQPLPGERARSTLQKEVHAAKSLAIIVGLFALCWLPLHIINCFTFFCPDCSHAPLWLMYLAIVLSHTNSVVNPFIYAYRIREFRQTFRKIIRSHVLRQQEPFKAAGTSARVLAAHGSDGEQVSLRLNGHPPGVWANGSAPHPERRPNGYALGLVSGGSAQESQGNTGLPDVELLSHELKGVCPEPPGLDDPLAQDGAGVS

Compound	melting point [°C]	inhibition at 0.01 µM (human A2A AR; compound at 10 nM) [%]	inhibition at 0.1 µM (human A2A AR; compound at 100 nM) [%]	inhibition at 1 µM (human A2A AR; compound at 1000 nM) [%]	inhibition at 0.1 µM (human A2B AR) [%]	further results
3-(2-Amino-6-(1-((6–(2-(hydroxymethyl)pyrrolidine-1-carbonyl)pyridin-2-yl)methyl)-1H-1,2,3-triazol-4-yl)pyrimidin-4-yl)-2-methylbenzonitrile [Compound 7l]						hA2A AR (%) inhibition of cAMP, 10 nM (human A2A AR; compound at 10 nM): 13.46 ± 3.71%; hA2A AR (%) inhibition of cAMP, 100 nM (human A2A AR; compound at 100 nM): 52.3 ± 8.46%; hA2A AR (%) inhibition of cAMP, 1000 nM (human A2A AR; compound at 1000 nM): 89.66 ± 1.31%; hA2B AR (%) inhibition of cAMP, 100 nM (human A2B AR): 84.34 ± 4.72%
CCOc1ccc2ccc(=O)oc2c1 [Compound 7-EC, 7-ethoxycoumarin, reference compound]						remaining at 10 min, 0.49 µM ([1]; male, Sprague-Dawley, pooled rat liver microsomes, rat liver microsomes, 10 min): 49%; remaining at 20 min, 0.49 µM ([1]; male, Sprague-Dawley, pooled rat liver microsomes, rat liver microsomes, 20 min): 23%; remaining at 0.5 h, 0.49 µM ([1]; male, Sprague-Dawley, pooled rat liver microsomes, rat liver microsomes, 30 min): 10.4%; remaining at 40 min, 0.49 µM ([1]; male, Sprague-Dawley, pooled rat liver microsomes, rat liver microsomes, 40 min): 2.98%; remaining at 50 min, 0.49 µM ([1]; male, Sprague-Dawley, pooled rat liver microsomes, rat liver microsomes, 50 min): 1.02%; remaining at 1 h, 0.49 µM ([1]; male, Sprague-Dawley, pooled rat liver microsomes, rat liver microsomes, 60 min, read-out: Remaining (%, T = 60min) Rat): 0.35%; half-life at 0.49 µM ([1]; male, Sprague-Dawley, rat, pooled rat liver microsomes, read-out: T1/2 Rat): 7.26 min; CLint(liver) Rat ([1]; rat liver microsomes): 10.0 mL/min/g; CLint(liver) Hum ([2]; human, microsomes): 9.0 mL/min/g; half-life at 0.49 µM ([2]; male, human, microsomes): 8.12 min; remaining at 20 min, 0.49 µM ([2]; male, human, microsomes): 11.5%; remaining at 0.5 h, 0.49 µM ([2]; male, human, microsomes): 3.54%; remaining at 40 min, 0.49 µM ([2]; male, human, microsomes): 1.6%; remaining at 50 min, 0.49 µM ([2]; male, human, microsomes): 0.97%; remaining at 1 h, 0.49 µM ([2]; male, human, microsomes): 0.72%; remaining at 10 min, 0.49 µM ([2]; male, human liver microsomes, 10 min, read-out: %Remaining Hum, 10 min): 34%
Cc1c(C#N)cccc1-c1cc(-c2cn(Cc3ccc4ccccc4n3)nn2)nc(N)n1 [Compound 7a, 3-(2-Amino-6–(1-(quinolin-2-ylmethyl)-1H-1,2,3-triazol-4-yl)pyrimidin-4-yl)-2-methylbenzonitrile]	203 to 204	28.2 ± 8.79	16.5 ± 1.9	43.5 ± 0.77	3.51 ± 3.19	
Cc1c(C#N)cccc1-c1cc(-c2cn(Cc3ccc4cccc(N)c4n3)nn2)nc(N)n1 [Compound 7c, 3-(2-amino-6-(1-((8-aminoquinolin-2-yl)methyl)-1H-1,2,3-triazol-4-yl)pyrimidin-4-yl)-2-methylbenzonitrile]	268 to 269	35.9 ± 5.39	38.2 ± 10.8	48.5 ± 1.45	85.43 ± 0.04	
Cc1c(C#N)cccc1-c1cc(-c2cn(Cc3cccc(-c4ncc[nH]4)n3)nn2)nc(N)n1 [Compound 7g, 3-(6-(1-((6-(1H-imidazol-2-yl)pyridin-2-yl)methyl)-1H-1,2,3-triazol-4-yl)-2-aminopyrimidin-4-yl)-2-methylbenzonitrile]	139 to 140	19.6 ± 2.13	56 ± 2.03	107.3 ± 0.89	52.9 ± 3.96	

The next lines start with results.

melting point [°C]	inhibition at 0.01 µM (human A2A AR; compound at 10 nM) [%]	inhibition at 0.1 µM (human A2A AR; compound at 100 nM) [%]	inhibition at 1 µM (human A2A AR; compound at 1000 nM) [%]	inhibition at 0.1 µM (human A2B AR) [%]	Compound	further results
105 to 106	40.8 ± 9.01	63.4 ± 1.39	91.3 ± 4.28	80.3 ± 1.84	COC(=O)c1cccc(Cn2cc(-c3cc(-c4cccc(C#N)c4C)nc(N)n3)nn2)n1 [Compound 7d, Methyl 6-((4-(2-amino-6-(3-cyano-2-methylphenyl)pyrimidin-4-yl)-1H-1,2,3-triazol-1-yl)methyl)picolinate]	
128 to 129	45 ± 1.25	50.7 ± 5.51	67.8 ± 4.91	82.5 ± 7.81	Cc1c(C#N)cccc1-c1cc(-c2cn(Cc3cccc(C(=O)OC(C)C)n3)nn2)nc(N)n1 [Compound 7e, Isopropyl 6-((4-(2-amino-6-(3-cyano-2-methylphenyl)pyrimidin-4-yl)-1H-1,2,3-triazol-1-yl)methyl)picolinate]	
176 to 177	37.9 ± 2.32	55.2 ± 4.27	92.6 ± 1.91	54.8 ± 2.09	Cc1c(C#N)cccc1-c1cc(-c2cn(Cc3cccc(C(=O)O)n3)nn2)nc(N)n1 [Compound 7h, 6-((4-(2-amino-6–(3-cyano-2-methylphenyl)pyrimidin-4-yl)-1H-1,2,3-triazol-1-yl)methyl)picolinic acid]	
	21.7 ± 5.43	70.5 ± 6.37	94.9 ± 2.05	78.3 ± 2.66	Cc1c(C#N)cccc1-c1cc(-c2cn(Cc3cccc(C(=O)N4CC(O)C4)n3)nn2)nc(N)n1 [Compound 7k, 3-(2-Amino-6-(1-((6–(3-hydroxyazetidine-1-carbonyl)pyridin-2-yl)methyl)-1H-1,2,3-triazol-4-yl)pyrimidin-4-yl)-2-methylbenzonitrile]	
